This assay has as its target human mGluR7 (Homo sapiens (Human), UniProt Q14831). Description: Inositol monophosphate production assay (IP1 assay), inhibition of L-AP4 response. In kind it is cell-based. To be noted: mean IC50 from at least two independent experiments; HEK293 cells transiently transfected with mGluR7, Gqtop and EAAC1; IP1 production vs EC80 L-AP4. In short, it runs like this:
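HEK293 cells transiently co-expressing mGluR7, chimeric Gq/Gi (Gqtop) and EAAC1, switched to Glutamax medium 3 h before stimulation. IP1 measured by competitive HTRF; inhibition of an EC80-equivalent L-AP4 response, triplicate points, four-parameter fit to log IC50, mean of ≥2 experiments.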

Drawing on patent publication US11414395B2, “Heterocyclic compounds as modulators of mGluR7” (PRAGMA Therapeutics, priority 2017, dated 2022), this text covers IC50 for 26 molecules.

Chain of human mGluR7 (Q14831 35-915): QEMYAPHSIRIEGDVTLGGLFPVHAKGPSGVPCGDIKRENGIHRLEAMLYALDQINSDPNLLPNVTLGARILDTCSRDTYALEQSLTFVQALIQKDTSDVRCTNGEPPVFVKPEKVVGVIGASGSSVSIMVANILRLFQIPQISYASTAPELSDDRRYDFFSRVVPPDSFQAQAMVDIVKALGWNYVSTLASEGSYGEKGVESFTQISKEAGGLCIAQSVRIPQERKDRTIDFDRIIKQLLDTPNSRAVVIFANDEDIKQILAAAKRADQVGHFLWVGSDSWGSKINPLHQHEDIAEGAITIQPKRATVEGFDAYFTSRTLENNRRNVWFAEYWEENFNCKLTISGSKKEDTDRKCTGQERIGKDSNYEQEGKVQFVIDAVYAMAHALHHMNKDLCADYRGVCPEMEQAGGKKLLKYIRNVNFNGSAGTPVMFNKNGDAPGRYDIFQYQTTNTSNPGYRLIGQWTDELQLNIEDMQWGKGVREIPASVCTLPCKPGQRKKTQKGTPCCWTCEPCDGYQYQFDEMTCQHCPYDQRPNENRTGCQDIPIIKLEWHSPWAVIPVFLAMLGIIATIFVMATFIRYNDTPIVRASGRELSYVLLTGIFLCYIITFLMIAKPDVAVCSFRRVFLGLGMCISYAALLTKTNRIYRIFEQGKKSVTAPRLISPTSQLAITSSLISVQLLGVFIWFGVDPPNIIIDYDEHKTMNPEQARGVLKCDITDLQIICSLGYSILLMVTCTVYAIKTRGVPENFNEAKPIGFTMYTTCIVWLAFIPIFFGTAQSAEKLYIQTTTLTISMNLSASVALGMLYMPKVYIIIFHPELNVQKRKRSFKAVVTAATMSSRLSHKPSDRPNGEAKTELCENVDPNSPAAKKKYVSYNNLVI

For `Cc1cnc(-n2ncc3c(c2=O)CCC(c2cccc(OC4CC4)c2C)C3)nc1` (centres unmarked) [Example 93, 6-(3-cyclopropoxy-2-methylphenyl)-2-(5-methylpyrimidin-2-yl)-5,6,7,8-tetrahydrophthalazin-1(2H)-one], the IC50 was less than 500 nM.

In turn, `COc1cccc(C2CCc3c(cnn(-c4ncc(C)cn4)c3=O)C2)c1Cl` (centres unmarked) [Example 94, 6-(2-chloro-3-methoxyphenyl)-2-(5-methylpyrimidin-2-yl)-5,6,7,8-tetrahydrophthalazin-1(2H)-one] came in with an IC50 of less than 500 nM.

Regarding `Cc1ccc(C2CCc3c(cnn(-c4ncccn4)c3=O)C2)c(Cl)c1` (centres unmarked) [Example 95, 6-(2-chloro-4-methylphenyl)-2-(pyrimidin-2-yl)-5,6,7,8-tetrahydrophthalazin-1(2H)-one], the IC50 was less than 500 nM.

Turning to `Cc1c(C2CCc3c(cnn(-c4ncccn4)c3=O)C2)cccc1N(C)C` (centres unmarked) [Example 96, 6-(3-(dimethylamino)-2-methylphenyl)-2-(pyrimidin-2-yl)-5,6,7,8-tetrahydrophthalazin-1(2H)-one], the IC50 is less than 500 nM.

In the case of `COc1cc(C2CCc3c(cnn(-c4ncccn4)c3=O)C2)c(C)cc1C` (centres unmarked) [Example 97, 6-(5-methoxy-2,4-dimethylphenyl)-2-(pyrimidin-2-yl)-5,6,7,8-tetrahydrophthalazin-1(2H)-one], the 50% inhibitory concentration (IC50) was less than 500 nM.

With `Cc1cc(Cl)ccc1C1CCc2c(cnn(-c3ncccn3)c2=O)C1` (centres unmarked) [Example 98, 6-(4-chloro-2-methylphenyl)-2-(pyrimidin-2-yl)-5,6,7,8-tetrahydrophthalazin-1(2H)-one], the IC50 was less than 500 nM.

`CC(=O)c1ccc(C2CCc3c(cnn(-c4ncccn4)c3=O)C2)c(C)c1` (centres unmarked) [Example 99, 6-(4-acetyl-2-methylphenyl)-2-(pyrimidin-2-yl)-5,6,7,8-tetrahydrophthalazin-1(2H)-one]: the half-inhibitory concentration (IC50) is 1000 to 30000 nM.

`COCCCOc1cccc(C2CCc3c(cnn(-c4ncccn4)c3=O)C2)c1C` (centres unmarked) [Example 100, 6-(3-(3-methoxypropoxy)-2-methylphenyl)-2-(pyrimidin-2-yl)-5,6,7,8-tetrahydrophthalazin-1(2H)-one] returned an IC50 of less than 500 nM.

The molecule `CCOc1cccc(C2CCc3c(cnn(-c4ncccn4)c3=O)C2)c1C` (centres unmarked) [Example 101, 6-(3-ethoxy-2-methylphenyl)-2-(pyrimidin-2-yl)-5,6,7,8-tetrahydrophthalazin-1(2H)-one] yielded an IC50 of less than 500 nM.

As to `Cc1c(OCC2CC2)cccc1C1CCc2c(cnn(-c3ncccn3)c2=O)C1` (centres unmarked) [Example 102, 6-(3-(cyclopropylmethoxy)-2-methylphenyl)-2-(pyrimidin-2-yl)-5,6,7,8-tetrahydrophthalazin-1(2H)-one], the IC50 was 500 to 1000 nM.

On to `Cc1c(OC(C)C)cccc1C1CCc2c(cnn(-c3ncccn3)c2=O)C1` (centres unmarked) [Example 103, 6-(3-isopropoxy-2-methylphenyl)-2-(pyrimidin-2-yl)-5,6,7,8-tetrahydrophthalazin-1(2H)-one], for which the IC50 was in the range of 1000 to 30000 nM.

`Cc1c(OC2CC2)cccc1C1CCc2c(cnn(-c3ncccn3)c2=O)C1` (centres unmarked) [Example 104, 6-(3-cyclopropoxy-2-methylphenyl)-2-(pyrimidin-2-yl)-5,6,7,8-tetrahydrophthalazin-1(2H)-one] showed an IC50 of less than 500 nM.

Regarding `COCCOc1cccc(C2CCc3c(cnn(-c4ncccn4)c3=O)C2)c1C` (centres unmarked) [Example 105, 6-(3-(2-methoxyethoxy)-2-methylphenyl)-2-(pyrimidin-2-yl)-5,6,7,8-tetrahydrophthalazin-1(2H)-one], the IC50 lay within 1000 to 30000 nM.

Regarding `Cc1c(OCc2ccccc2)cccc1C1CCc2c(cnn(-c3ncccn3)c2=O)C1` (centres unmarked) [Example 106, 6-(3-(benzyloxy)-2-methylphenyl)-2-(pyrimidin-2-yl)-5,6,7,8-tetrahydrophthalazin-1(2H)-one], the IC50 was 1000 to 30000 nM.

With `COc1ccc(C)c(C2CCc3c(cnn(-c4ncc(C5CC5)cn4)c3=O)C2)c1` (centres unmarked) [Example 107, 2-(5-cyclopropylpyrimidin-2-yl)-6-(5-methoxy-2-methylphenyl)-5,6,7,8-tetrahydrophthalazin-1(2H)-one], the IC50 was in the range of 500 to 1000 nM.

With `Cc1ccc(C2CCc3c(cnn(-c4ccc(C5CC5)cn4)c3=O)C2)c(C)c1` (centres unmarked) [Example 108, 2-(5-cyclopropylpyridin-2-yl)-6-(2,4-dimethylphenyl)-5,6,7,8-tetrahydrophthalazin-1(2H)-one], the IC50 was less than 500 nM.

In turn, `Cc1ccc(C2CCc3c(cnn(-c4ncc(C5CC5)cn4)c3=O)C2)c(C)c1` (centres unmarked) [Example 109, 2-(5-cyclopropylpyrimidin-2-yl)-6-(2,4-dimethylphenyl)-5,6,7,8-tetrahydrophthalazin-1(2H)-one] came in with a half-maximal inhibitory concentration (IC50) of less than 500 nM.

Regarding `COc1cccc(C2CCc3c(cnn(-c4ccc(C5CC5)cn4)c3=O)C2)c1C` (centres unmarked) [Example 110, 2-(5-cyclopropylpyridin-2-yl)-6-(3-methoxy-2-methylphenyl)-5,6,7,8-tetrahydrophthalazin-1(2H)-one], the IC50 is less than 500 nM.

With `COc1cccc(C2CCc3c(cnn(-c4ncc(N5CCCC5)cn4)c3=O)C2)c1C` (centres unmarked) [Example 111, 6-(3-methoxy-2-methylphenyl)-2-(5-(pyrrolidin-1-yl)pyrimidin-2-yl)-5,6,7,8-tetrahydrophthalazin-1(2H)-one], the IC50 fell in the range of 1000 to 30000 nM.

`COc1cccc(C2CCc3c(cnn(-c4ncc(N5CCOCC5)cn4)c3=O)C2)c1C` (centres unmarked) [Example 112, 6-(3-methoxy-2-methylphenyl)-2-(5-morpholinopyrimidin-2-yl)-5,6,7,8-tetrahydrophthalazin-1(2H)-one] displayed an IC50 of less than 500 nM.

Turning to `COc1cccc(C2CCc3c(cnn(-c4ccc(N5CCOCC5)cn4)c3=O)C2)c1C` (centres unmarked) [Example 113, 6-(3-methoxy-2-methylphenyl)-2-(5-morpholinopyridin-2-yl)-5,6,7,8-tetrahydrophthalazin-1(2H)-one], the IC50 is less than 500 nM.

The molecule `Cc1ccc(C2CCc3c(cnn(-c4ccc(N5CCOCC5)cn4)c3=O)C2)c(C)c1` (centres unmarked) [Example 114, 6-(2,4-dimethylphenyl)-2-(5-morpholinopyridin-2-yl)-5,6,7,8-tetrahydrophthalazin-1(2H)-one] showed an IC50 of less than 500 nM.

Molecule `Cc1ccc(C2CCc3c(cnn(-c4ncc(N5CCOCC5)cn4)c3=O)C2)c(C)c1` (centres unmarked) [Example 115, 6-(2,4-dimethylphenyl)-2-(5-morpholinopyrimidin-2-yl)-5,6,7,8-tetrahydrophthalazin-1(2H)-one] gave an IC50 of less than 500 nM.

In the case of `Cc1ccc(C2CCc3c(cnn(-c4ncc(N5CCC5)cn4)c3=O)C2)c(C)c1` (centres unmarked) [Example 116, 2-(5-(azetidin-1-yl)pyrimidin-2-yl)-6-(2,4-dimethylphenyl)-5,6,7,8-tetrahydrophthalazin-1(2H)-one], the IC50 was less than 500 nM.

On to `CC(=O)Nc1cnc(-n2ncc3c(c2=O)CCC(c2ccc(C)cc2C)C3)nc1` (centres unmarked) [Example 117, N-(2-(6-(2,4-dimethylphenyl)-1-oxo-5,6,7,8-tetrahydrophthalazin-2(1H)-yl)pyrimidin-5-yl)acetamide], for which the IC50 is less than 500 nM.

Molecule `COCCOc1cnc(-n2ncc3c(c2=O)CCC(c2cccc(OC)c2C)C3)nc1` (centres unmarked) [Example 118, 6-(3-methoxy-2-methylphenyl)-2-(5-(2-methoxyethoxy)pyrimidin-2-yl)-5,6,7,8-tetrahydrophthalazin-1(2H)-one] yielded an IC50 of less than 500 nM.

In general, IC50 refers to the midpoint of a concentration-inhibition curve. Low values mean greater potency in that assay, high ones weaker potency in that assay.
